Columns and labels:
Assay type in all cases: biochemical
[1] = target: T1, MelBSt (Salmonella typhimurium, UniProt P30878); assay: Trp to D2G FRET reversal by melibiose, functional state of solubilized MelBSt; conditions: 1.0% by weight, solubilized at 23° C. for 30 minutes
T1 construct: made in house; host or cells: E. coli DW2, right-side-out membrane vesicles
Description: (§1) So as to investigate functional states of MelB proteins dissolved by amphipathic molecules, Førster resonance energy transfer (FRET) to 2′-(N-dansyl)aminoalkyl-1-thio-β-D-galactopyranoside (D^2G), as a fluorescence ligand, was measured in tryptophan (Trp). […] However, if a protein dissolved by an amphipathic molecule has activity, melibiose substitutes for the coupled D^2G molecule upon addition of the melibiose and thus energy transfer no longer occurs, thereby decreasing fluorescence intensity. Accordingly, the activity of the MelB protein dissolved in DDM or NDT-C11 can be determined by whether reversal of D^2G FRET occurs due to melibiose in Trp. Therefore, the FRET measurement method is an efficient method to measure the membrane protein structural stabilization ability of an amphipathic molecule.
(§2) In particular, a right-side-out (RSO) membrane vesicle was prepared by osmotic lysis of an E. coli DW2 cell containing MelBSt or MelBEc and re-suspended with 100 mM KPi (pH 7.5), followed by storing at −80° C. D^2G was provided by H. Ronald Kaback and Gerard Leblanc. A protein concentration of an RSO membrane vesicle in 100 mM KPi, pH 7.5, and 50 mM NaCl was 1 mg/ml concentration. […] An emission wavelength of MelBEc was measured at 465 nm and an emission wavelength of MelBSt was measured at 490 nm. […] Accordingly, fluorescence intensity is decreased. […]

[2] = target: T2, MelBEc (Escherichia coli, UniProt P02921); assay: Trp to D2G FRET reversal by melibiose, functional state of solubilized MelBEc; conditions: 1.0% by weight, solubilized at 23° C. for 30 minutes
T2 construct: made in house; host or cells: E. coli DW2, right-side-out membrane vesicles
T2 sequence (P02921 whole entry): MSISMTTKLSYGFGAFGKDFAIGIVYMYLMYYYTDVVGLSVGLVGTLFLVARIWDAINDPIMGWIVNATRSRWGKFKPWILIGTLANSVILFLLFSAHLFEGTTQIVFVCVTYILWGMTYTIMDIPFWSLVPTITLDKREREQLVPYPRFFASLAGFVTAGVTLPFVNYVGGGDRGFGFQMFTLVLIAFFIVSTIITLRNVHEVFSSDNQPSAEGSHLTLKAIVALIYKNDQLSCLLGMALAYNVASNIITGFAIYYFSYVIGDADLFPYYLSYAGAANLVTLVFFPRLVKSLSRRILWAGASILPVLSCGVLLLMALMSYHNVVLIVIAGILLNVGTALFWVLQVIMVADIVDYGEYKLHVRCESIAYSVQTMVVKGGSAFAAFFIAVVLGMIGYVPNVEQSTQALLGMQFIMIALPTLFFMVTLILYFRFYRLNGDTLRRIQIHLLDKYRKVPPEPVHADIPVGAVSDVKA
Description: as §1, §2

[3] = target: LeuT E192C^TMR (Aquifex aeolicus, UniProt O67854, E192C); assay: Site-directed fluorescence (iodide) quenching of LeuT E192C-TMR, Stern-Volmer analysis; conditions: for Δ KSV: leucine-induced change of iodide accessibility of TMR, CMC+0.04% by weight detergent, means [s.e.m. interval]; for Ksv when leucine is absent: no leucine, LeuT E192C-TMR in CMC+0.04% by weight detergent
From the text: A principle of this experiment is as follows: A cysteine residue was inserted into a 192th LeuT site (E192C), followed by coupling with a thiol-reactive fluorophore (tetramethylrhodamine-5-maleimide, TMR). The prepared LeuT E192C^TMR, as TMR-coupled LeuT, is an excellent system to sensitively monitor protein structure change in response to ligand coupling. […] Due to such change, TMR fluorescence molecules exposed to an aqueous solution become closer to iodide (I^−), as a quencher dissolved in water, whereby strong fluorescence quenching is caused. TMR quenching intensity by leucine coupling may be represented by Stern-Volmer plotting and thus structural flexibility of a protein may be directly measured. Ligand bindability of the TMR-labeled transporter was measured using SPA while increasing the amount of [^3H]leucine.
In particular, structure, expression, purification, and fluorescence labeling were performed according to the following methods. In accordance with a method disclosed in a paper published by C. B. Billesbolle, et al. (J. Biol. Chem. 2015, 290, 26725-26738), a leucine transporter mutant (LeuT E192C^TMR) was produced and purification and labeling were carried out. In summary, a residue of the E192 was mutated with cysteine using QuikChange (Agilent Technologies) such that fluorescence coupling was accomplished by maleimide labeling. The LeuT mutant was expressed in E. coli C41 (DE3). A membrane of DE3 was disrupted and LeuT was solubilized with 1% (w/v) DDM. Subsequently, LeuT solubilized with the amphipathic molecule was fixed to a Chelating Sepharose Fast Flow resin (GE Healthcare, Little Chalfont, UK), followed by washing with tetramethylrhodamine-5-maleimide (TMR, Life Technologies, Carlsbad, Calif., USA) at 4° C. for 16 hours. Subsequently, LeuT was eluted with a buffer containing 300 mM imidazole, 20 mM Tris-HCl (pH 8.0), 1 mM NaCl, 199 mM KCl, and 0.05% DDM.
Fluorescence spectroscopy was carried out according to the following method. A fluorescence-based experiment was carried out by diluting 0.5 μg ml^−1 of fluorescence-labeled LeuT with buffer A supplemented with CMC+0.04% by weight of DDM, MNG-3 or NDT-C11. Leucine was separately added to specimen aliquots of LeuT for each concentration and incubated for one hour in a room temperature shaker. Steady-state fluorescence intensities were recorded with a FluoroMax4 (Horiba Scientific, Edison, N.J., USA) at λem=572 nm and excitation source at λex=552 nm at 25° C. Quencher-titration was carried out by successive additions of small specimen aliquots containing 1 M KI into buffer A supplemented with 10 mM Na2S2O3. Fluorescence intensities (F) were corrected for sample dilution and normalized to the initial intensity (F0) of a sample. All data was analyzed by linear-(Stern-Volmer plot) or nonlinear regression in GraphPad Prism 6.0 (GraphPad Software). The degree of iodide (I^−) accessibility was obtained from the following Stern-Volmer equation: F0/F=1+Ksv×[Q], where F0/F is normalized fluorescence quenching, Ksv is a Stern-Volmer constant, and [Q] is quencher concentration. When means are calculated as a log, the means are shown as pIC50 and the [s.e.m. interval] from pIC50±s.e.m.
Values of radioligand binding constants were calculated through SPA saturation binding experiments. Values of iodide quenching-response constants and ΔKSV were calculated from a site-directed fluorescence quenching spectroscopy. The affinity (Kd) is shown as means±s.e.m and ΔKSV is shown as means [s.e.m. interval]. All data is shown as means of three to four independent experiments.

T1 sequence (P30878 whole entry): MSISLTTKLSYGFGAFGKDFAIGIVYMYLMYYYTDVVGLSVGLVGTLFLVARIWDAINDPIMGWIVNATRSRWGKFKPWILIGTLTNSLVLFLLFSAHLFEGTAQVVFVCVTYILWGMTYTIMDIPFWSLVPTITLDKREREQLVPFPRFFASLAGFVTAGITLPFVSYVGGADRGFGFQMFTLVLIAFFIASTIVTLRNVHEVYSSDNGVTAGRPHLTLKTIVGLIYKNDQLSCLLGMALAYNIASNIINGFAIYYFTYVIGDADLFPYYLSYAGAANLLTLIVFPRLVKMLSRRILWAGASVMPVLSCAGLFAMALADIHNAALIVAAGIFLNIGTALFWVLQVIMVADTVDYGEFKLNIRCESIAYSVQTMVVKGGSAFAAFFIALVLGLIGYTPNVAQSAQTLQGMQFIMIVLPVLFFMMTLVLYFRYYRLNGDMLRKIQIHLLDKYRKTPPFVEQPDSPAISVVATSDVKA

Structure (SMILES) | Functional state of solubilized MelBSt (melibiose binding, FRET) [1] | Functional state of solubilized MelBEc (melibiose binding, FRET) [2] | Δ KSV [3] | Ksv when leucine is absent [3] | Structural fluidity of the LeuT protein ([3]; conclusion from ΔKsv)
CCCCCCCCCCCCOC1OC(CO)C(OC2OC(CO)C(O)C(O)C2O)C(O)C1O [DDM, n-dodecyl-β-D-maltopyranoside, reference compound] | enable production of functional MelBSt proteins | completely lost | 1.1 M⁻¹ | up to 1.6 | 
CCCCCCCCCCCC(CCCCCCCCCCC)COCC(CO[C@@H]1OC(CO)[C@@H](O)C(O)C1O)(CO[C@@H]1OC(CO)[C@@H](O)C(O)C1O)CO[C@@H]1OC(CO)[C@@H](O)C(O)C1O (stereo partly drawn) [NDT-C11] | enable production of functional MelBSt proteins | effectively maintained | 0.9 M⁻¹ | up to 2.5 | satisfactorily maintains the structural fluidity
